Values after ≈ are worked out from the molar mass of the structure shown.
Tests used:
Adenosine receptor A1 = molecular target: T1, Adenosine receptor A1 (Homo sapiens, UniProt P30542); assay: Displacement of [3H]DPCPX from human recombinant adenosine A1 receptor expressed in CHO-A1 cell membrane; type: cell membranes
T1 sequence (P30542 whole entry): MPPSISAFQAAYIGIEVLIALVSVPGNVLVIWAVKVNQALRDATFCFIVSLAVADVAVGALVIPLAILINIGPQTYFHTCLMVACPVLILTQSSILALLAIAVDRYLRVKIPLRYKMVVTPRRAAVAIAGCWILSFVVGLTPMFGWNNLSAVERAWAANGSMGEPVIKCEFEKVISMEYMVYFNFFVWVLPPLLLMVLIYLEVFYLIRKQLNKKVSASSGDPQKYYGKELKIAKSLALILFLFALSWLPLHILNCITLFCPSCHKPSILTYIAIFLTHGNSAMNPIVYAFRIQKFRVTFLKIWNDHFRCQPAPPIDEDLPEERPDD

[1] = molecular target: T2, Adenosine receptor A1 (Homo sapiens) (UniProt P30542); assay: Displacement of [3H]DPCPX from human recombinant adenosine A1 receptor expressed in CHO-A1 cell membrane at 10 uM; type: cell membranes
T2 sequence (whole entry): T1 sequence (P30542 whole entry)

[2] = molecular target: Adenosine receptor A2a (Homo sapiens) (UniProt P29274); assay: Displacement of [3H]ZM241385 from human recombinant adenosine A2A receptor expressed in human HeLa cell membrane at 10 uM; type: cell membranes
Sequence of Adenosine receptor A2a (Homo sapiens) (P29274 whole entry): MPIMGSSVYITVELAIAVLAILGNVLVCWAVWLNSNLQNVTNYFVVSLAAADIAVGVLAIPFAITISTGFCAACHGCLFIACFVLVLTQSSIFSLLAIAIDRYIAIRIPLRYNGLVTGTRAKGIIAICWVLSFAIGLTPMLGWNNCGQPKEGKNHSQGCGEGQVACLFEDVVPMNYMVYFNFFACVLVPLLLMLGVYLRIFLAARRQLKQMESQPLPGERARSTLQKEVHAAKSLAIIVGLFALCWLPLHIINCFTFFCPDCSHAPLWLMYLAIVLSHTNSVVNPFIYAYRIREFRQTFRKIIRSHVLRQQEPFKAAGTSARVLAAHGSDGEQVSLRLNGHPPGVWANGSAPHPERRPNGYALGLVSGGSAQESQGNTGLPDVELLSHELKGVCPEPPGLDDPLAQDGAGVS

[3] = molecular target: T3, Adenosine receptor A2b (Homo sapiens) (UniProt P29275); assay: Displacement of [3H]DPCPX from human recombinant adenosine A2B receptor expressed in HEK293 cell membrane at 10 uM; type: cell membranes
T3 sequence (whole entry): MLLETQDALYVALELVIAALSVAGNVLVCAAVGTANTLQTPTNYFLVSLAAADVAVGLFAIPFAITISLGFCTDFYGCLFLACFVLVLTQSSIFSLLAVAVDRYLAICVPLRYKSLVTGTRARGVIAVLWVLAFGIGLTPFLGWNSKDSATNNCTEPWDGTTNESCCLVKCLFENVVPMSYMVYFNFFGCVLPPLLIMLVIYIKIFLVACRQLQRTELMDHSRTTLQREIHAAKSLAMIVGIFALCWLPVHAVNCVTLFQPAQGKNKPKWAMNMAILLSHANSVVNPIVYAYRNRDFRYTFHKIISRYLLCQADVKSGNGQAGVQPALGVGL

[4] = molecular target: T4, Adenosine receptor A3 (Homo sapiens) (UniProt P0DMS8); assay: Displacement of [3H]NECA from human recombinant adenosine A3 receptor expressed in human HeLa cell membrane at 10 uM; type: cell membranes
T4 sequence (whole entry): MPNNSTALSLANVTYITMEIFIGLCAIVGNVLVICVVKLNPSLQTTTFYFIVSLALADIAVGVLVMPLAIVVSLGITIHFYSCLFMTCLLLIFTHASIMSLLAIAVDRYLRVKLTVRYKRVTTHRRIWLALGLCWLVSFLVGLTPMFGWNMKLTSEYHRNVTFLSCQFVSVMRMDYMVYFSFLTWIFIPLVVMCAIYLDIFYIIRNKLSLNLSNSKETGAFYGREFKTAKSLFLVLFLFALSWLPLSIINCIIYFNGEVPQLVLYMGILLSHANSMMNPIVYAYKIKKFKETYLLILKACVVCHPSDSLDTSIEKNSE

[5] = Solubility in water; type: physicochemical
[6] = Solubility in glycerin; type: physicochemical
[7] = Solubility in di(ethylene glycol); type: physicochemical

| Ki (Adenosine receptor A1) [µM] | inhibition [1] [%] | inhibition [2] [%] | inhibition [3] [%] | inhibition [4] [%] | solubility [5] [mM] | solubility [6] | solubility [7] [mM] | SMILES |
| --- | --- | --- | --- | --- | --- | --- | --- | --- |
| 5 | 53 | 18 | 47 | 19 | – | – | – | C=CCCCCCCCCCOCCOCCOCCOCCn1cnc2c1c(=O)n(C)c(=O)n2C |
| – | 24 | 17 | 3 | 2 | – | – | – | Cn1c(=O)c2c(ncn2CCOCCOCCOCCN=[N+]=[N-])n(C)c1=O |
| – | 37 | 20 | 10 | 1 | 14 (≈ 4370 µg/mL) | Insoluble | 10 (≈ 3120 µg/mL) | COCCOCCOCc1nc2c([nH]1)c(=O)n(C)c(=O)n2C |

Source: ChEMBL document CHEMBL1157661 (Bioorg Med Chem, 2010)
